Consider one molecule from patent US11078496B2, “System for F-box hormone receptor regulated protein expression in mammalian cells” (ICAHN SCHOOL OF MEDICINE AT MOUNT SINAI, priority 2016, dated 2021).

The test system of assay [1] is CCE A-CHK1 clone #2 cells. The assay can be described thus: Competition assay of A-CHK1 clone #2 cells against GFP-A CCE cells. It is filed as cell-based, mouse. The following applies: 50 μM IAA-treated A-CHK1 cells compared to the EtOH-treated controls. The method, then: FIGS. 6A-6E show CHK1 depletion under normal growth conditions in mESCs. FIG. 6A show images of cells assayed for alkaline phosphatase activity. CCE mESCs were infected with pRAIDRS GFP-A or A-CHK1 and selected in the presence of EtOH (“Con”) or auxin (“IAA”). After colonies emerged, cells were assayed for alkaline phosphatase activity. Left, low magnification scans. Right, bright-field microscope images. Scale bars, 100 μm. […] FIG. 6B are graphs showing populations doubling, following selection, of the indicated clones cultured in the presence of 0.01% EtOH (solid lines) or 50 μM IAA (dashed lines). Cells were counted and replated every 3-4 days and population doublings were calculated as Log2 (cell output/cell input). Experiment was conducted once for these clones. […] Cells were collected every 2-3 days and assayed for GFP and mCherry fluorescence by flow cytometry. The percentage of A-CHK1 cells was calculated for each time point and the values for the auxin-treated cells were normalized to those of EtOH-treated cells. An average growth rate decrease of 8% per day was calculated for auxin-treated A-CHK1 cells compared to the EtOH-treated controls. […] In FIG. 6E, the indicated clones were treated with 0.01% EtOH or 50 μM auxin (“IAA”) for 3 days and analyzed for the expression of self-renewal and differentiation markers by QRT-PCR. […]

Assay [2] relates to aphidicolin-treated mESCs. Description: Mitotic entry after auxin in aphidicolin-treated A-CHK1 mESCs (mitotic index, flow cytometry). The assay is classed as cell-based, mouse. The following applies: A-CHK1 mESCs pretreated with aphidicolin for 1 day. The method, then: FIG. 5A is a western blot analysis depicting endogenous CHK1 (*) and AID^47-CHK1 (A-CHK1, **) in four selected clones and in parental non-infected mESCs. […] serves as a loading control. Experiment was repeated three times for clones #1 and #2, and a representative blot is presented. In FIG. 5B, A-CHK1 #2 mESCs were treated with ethanol (“Con”) or auxin (“IAA”) for 1 day. Cells were then treated with the indicated concentrations of aphidicolin (“Aph”). Equal concentrations of DMSO were applied to all conditions. The next day, cells were stained with crystal violet and plates were scanned. […] Left panel: mitotic index was calculated as the percentage of H3^pS10-positive cells with 4N DNA content, measured by flow cytometry. […] Tyr15 phosphorylation of CDK1 (“CDKlpY^15”) was detected using a phospho-specific antibody. β-Actin serves as a loading control. […]
Flow cytometry was performed on a BD LSRII machine. For GFP and mOrange fluorescence analysis, cells were trypsinized, neutralized with FBS-containing media, supplemented with […] DAPI and kept on ice. […] GFP and mOrange fluorescence intensities were detected using the fluorescein isothiocyanate (“FITC”) and DsRed channels, respectively. Background autofluorescence was measured using parental noninfected cells. […] To calculate % degradation, relative median fluorescence was subtracted from 1. […]
(Flow cytometry measures light scatter and fluorescence of single cells or particles in a stream.)

As for `O=C(O)Cc1c[nH]c2ccccc12` [auxin, indole-3-acetic acid], the “average growth rate decrease” value in assay [1] turned out to be 8 % per day. Further, in assay [2], the “time of synchronous mitotic entry post-auxin treatment” value is 45 to 90 min.
